Test results from ChEMBL document CHEMBL5325440, “Design, synthesis, and anti-inflammatory activity characterization of novel brain-permeable HDAC6 inhibitors” (Eur J Med Chem, 2023).
One block for each molecule: values may come before it.

How the values were obtained:
[1] = Ratio of drug concentration in brain to plasma of C57BL/6 mouse plasma at 1 mg/kg, ip measured after 1 hr by LC-MS/MS analysis; format: ADME, organism-based; conditions: read-out: BPR
[2] = molecular target: T1, Histone deacetylase 8 (Homo sapiens, UniProt Q9BY41); assay: Inhibition of HDAC8 (unknown origin)
T1 sequence (Q9BY41 whole entry): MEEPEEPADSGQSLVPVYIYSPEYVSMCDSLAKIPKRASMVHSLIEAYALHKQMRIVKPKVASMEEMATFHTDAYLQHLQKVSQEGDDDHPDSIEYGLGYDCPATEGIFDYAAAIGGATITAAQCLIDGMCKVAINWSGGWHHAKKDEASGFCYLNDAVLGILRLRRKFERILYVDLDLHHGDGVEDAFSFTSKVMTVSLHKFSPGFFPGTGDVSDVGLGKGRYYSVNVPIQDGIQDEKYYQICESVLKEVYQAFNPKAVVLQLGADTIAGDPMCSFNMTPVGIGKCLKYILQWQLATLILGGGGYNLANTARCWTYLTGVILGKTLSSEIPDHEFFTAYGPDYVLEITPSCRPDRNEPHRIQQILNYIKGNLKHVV

[3] = molecular target: Histone deacetylase 9 (Homo sapiens, UniProt Q9UKV0); assay: Inhibition of HDAC9 (unknown origin)
Chain of Histone deacetylase 9 (Q9UKV0 whole entry): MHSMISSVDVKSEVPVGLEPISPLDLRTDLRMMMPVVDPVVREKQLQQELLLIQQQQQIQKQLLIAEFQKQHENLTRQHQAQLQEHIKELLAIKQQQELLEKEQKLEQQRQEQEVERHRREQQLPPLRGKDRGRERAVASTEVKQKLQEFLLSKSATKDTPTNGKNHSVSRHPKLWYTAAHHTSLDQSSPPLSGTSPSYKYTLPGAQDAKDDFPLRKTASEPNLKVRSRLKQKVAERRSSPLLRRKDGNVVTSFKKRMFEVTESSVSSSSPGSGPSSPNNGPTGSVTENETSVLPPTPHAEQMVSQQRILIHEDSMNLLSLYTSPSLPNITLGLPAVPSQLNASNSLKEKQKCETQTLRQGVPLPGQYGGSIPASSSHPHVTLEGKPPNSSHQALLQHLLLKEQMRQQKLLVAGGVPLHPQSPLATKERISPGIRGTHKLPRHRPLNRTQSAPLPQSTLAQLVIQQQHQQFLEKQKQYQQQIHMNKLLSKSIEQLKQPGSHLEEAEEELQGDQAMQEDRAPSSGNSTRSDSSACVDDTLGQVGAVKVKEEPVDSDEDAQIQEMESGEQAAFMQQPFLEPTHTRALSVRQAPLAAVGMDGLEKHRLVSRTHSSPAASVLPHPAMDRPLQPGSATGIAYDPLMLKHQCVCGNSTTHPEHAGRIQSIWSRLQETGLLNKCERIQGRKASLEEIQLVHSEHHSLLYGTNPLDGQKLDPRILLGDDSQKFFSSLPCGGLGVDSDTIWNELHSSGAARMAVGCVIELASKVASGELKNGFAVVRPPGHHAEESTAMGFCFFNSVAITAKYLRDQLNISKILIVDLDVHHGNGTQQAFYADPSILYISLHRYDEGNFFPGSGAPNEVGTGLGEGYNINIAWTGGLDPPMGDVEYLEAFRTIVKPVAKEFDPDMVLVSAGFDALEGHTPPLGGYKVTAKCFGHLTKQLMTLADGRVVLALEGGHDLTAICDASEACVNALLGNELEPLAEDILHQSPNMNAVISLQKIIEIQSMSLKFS

[4] = Drug concentration in C57BL/6 mouse plasma at 1 mg/kg, ip measured after 1 hr by LC-MS/MS analysis; format: ADME, organism-based
[5] = system: BV-2; assay: Cytotoxicity against mouse BV-2 cells at 500 to 1000 nM incubated overnight in presence of LPS by LDH assay; format: toxicity, cell-based; conditions: bv-2, 1 µM, dose 500-1000 nM
[6] = Drug concentration in C57BL/6 mouse plasma at 1 mg/kg, ip measured after 0.5 hrs by LC-MS/MS analysis; format: ADME, organism-based
[7] = molecular target: Histone deacetylase 5 (Homo sapiens, UniProt Q9UQL6); assay: Inhibition of HDAC5 (unknown origin)
Chain of Histone deacetylase 5 (Q9UQL6 whole entry): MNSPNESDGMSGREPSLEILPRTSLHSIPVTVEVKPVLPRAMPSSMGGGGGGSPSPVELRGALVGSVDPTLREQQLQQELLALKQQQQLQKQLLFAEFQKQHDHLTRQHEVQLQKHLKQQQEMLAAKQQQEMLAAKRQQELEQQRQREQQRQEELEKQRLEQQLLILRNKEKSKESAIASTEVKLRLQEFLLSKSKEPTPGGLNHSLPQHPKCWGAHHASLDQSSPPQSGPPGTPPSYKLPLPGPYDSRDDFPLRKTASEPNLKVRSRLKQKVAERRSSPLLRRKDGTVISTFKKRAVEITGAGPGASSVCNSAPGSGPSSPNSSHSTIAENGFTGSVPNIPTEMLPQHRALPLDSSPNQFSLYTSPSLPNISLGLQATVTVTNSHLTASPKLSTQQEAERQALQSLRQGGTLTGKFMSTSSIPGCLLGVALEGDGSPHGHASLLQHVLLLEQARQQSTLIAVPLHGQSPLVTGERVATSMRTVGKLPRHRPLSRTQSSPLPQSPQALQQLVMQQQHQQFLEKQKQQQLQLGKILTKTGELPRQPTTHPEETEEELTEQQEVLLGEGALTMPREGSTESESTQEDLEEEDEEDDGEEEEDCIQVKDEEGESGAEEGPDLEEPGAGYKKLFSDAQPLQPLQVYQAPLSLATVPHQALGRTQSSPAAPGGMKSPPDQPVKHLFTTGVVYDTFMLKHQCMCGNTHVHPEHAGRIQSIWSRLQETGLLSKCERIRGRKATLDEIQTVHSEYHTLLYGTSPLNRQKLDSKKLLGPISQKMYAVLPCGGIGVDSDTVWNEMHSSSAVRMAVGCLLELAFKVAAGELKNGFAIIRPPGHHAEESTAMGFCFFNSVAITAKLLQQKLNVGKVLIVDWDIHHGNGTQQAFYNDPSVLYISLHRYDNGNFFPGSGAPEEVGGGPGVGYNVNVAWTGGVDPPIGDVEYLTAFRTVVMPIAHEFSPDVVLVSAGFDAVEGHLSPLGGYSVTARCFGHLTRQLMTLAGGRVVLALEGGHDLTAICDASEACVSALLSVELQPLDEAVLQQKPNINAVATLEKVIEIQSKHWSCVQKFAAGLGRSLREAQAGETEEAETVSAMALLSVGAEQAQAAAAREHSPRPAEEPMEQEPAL

[8] = molecular target: T2, Histone deacetylase 11 (Homo sapiens, UniProt Q96DB2); assay: Inhibition of HDAC11 (unknown origin)
T2 sequence (Q96DB2 whole entry): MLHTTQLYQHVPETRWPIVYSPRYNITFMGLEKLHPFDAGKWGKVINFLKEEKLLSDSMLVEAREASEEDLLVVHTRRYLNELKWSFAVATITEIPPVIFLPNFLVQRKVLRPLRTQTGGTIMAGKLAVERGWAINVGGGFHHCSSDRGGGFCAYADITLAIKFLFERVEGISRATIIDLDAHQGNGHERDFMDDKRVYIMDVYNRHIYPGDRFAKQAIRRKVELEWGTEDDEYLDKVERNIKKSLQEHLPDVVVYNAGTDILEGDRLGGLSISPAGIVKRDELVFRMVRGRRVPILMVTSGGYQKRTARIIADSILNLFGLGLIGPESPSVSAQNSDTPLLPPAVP

[9] = Drug concentration in C57BL/6 mouse brain at 1 mg/kg, ip measured after 1 hr by LC-MS/MS analysis; format: ADME, organism-based; conditions: read-out: Ct
[10] = Drug concentration in C57BL/6 mouse brain at 1 mg/kg, ip measured after 3 hrs by LC-MS/MS analysis; format: ADME, organism-based; conditions: read-out: Ct
[11] = molecular target: Histone deacetylase 3 (Homo sapiens, UniProt O15379); assay: Inhibition of HDAC3 (unknown origin)
Chain of Histone deacetylase 3 (O15379 whole entry): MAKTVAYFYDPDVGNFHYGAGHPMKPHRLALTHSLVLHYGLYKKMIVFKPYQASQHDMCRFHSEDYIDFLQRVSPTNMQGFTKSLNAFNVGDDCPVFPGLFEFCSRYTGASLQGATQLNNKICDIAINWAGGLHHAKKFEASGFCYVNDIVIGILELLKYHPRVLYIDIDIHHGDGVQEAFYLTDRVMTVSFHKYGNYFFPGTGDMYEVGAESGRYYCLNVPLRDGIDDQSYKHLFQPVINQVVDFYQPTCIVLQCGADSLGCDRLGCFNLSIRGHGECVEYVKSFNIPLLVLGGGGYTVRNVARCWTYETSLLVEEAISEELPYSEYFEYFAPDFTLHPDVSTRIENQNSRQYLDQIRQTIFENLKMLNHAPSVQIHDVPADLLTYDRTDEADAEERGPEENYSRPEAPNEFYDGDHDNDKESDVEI

[12] = Ratio of drug concentration in brain to plasma of C57BL/6 mouse plasma at 1 mg/kg, ip measured after 0.5 hr by LC-MS/MS analysis; format: ADME, organism-based; conditions: read-out: BPR
[13] = molecular target: Histone deacetylase 4 (Homo sapiens, UniProt P56524); assay: Inhibition of HDAC4 (unknown origin)
Chain of Histone deacetylase 4 (P56524 whole entry): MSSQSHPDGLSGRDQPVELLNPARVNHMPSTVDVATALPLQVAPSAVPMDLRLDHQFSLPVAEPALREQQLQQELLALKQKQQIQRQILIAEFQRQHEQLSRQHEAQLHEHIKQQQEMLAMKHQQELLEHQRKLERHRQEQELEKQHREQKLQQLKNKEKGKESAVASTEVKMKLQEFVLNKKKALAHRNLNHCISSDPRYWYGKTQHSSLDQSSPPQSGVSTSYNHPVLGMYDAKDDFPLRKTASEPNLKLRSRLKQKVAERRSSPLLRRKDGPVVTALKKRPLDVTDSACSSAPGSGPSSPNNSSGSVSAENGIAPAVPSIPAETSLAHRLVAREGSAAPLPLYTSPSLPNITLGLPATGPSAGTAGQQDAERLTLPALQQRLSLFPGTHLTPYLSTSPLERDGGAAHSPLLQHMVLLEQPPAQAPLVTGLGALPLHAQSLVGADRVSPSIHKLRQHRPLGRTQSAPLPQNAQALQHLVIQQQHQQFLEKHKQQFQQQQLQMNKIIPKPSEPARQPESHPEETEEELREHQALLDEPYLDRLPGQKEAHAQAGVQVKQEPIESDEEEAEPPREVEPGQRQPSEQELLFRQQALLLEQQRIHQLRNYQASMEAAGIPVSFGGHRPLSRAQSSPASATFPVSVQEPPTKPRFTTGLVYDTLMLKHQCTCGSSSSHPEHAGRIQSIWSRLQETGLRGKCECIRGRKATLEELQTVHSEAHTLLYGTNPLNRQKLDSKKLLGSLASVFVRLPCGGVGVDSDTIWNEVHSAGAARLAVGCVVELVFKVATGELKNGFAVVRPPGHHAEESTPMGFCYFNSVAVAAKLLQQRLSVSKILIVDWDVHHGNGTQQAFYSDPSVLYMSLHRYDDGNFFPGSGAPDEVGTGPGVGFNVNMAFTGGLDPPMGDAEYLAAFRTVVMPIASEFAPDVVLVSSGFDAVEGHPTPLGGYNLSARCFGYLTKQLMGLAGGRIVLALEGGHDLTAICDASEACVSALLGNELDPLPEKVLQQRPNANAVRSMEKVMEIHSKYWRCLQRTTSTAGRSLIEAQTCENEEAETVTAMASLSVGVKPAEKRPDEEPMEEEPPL

[14] = molecular target: T3, Polyamine deacetylase HDAC10 (Homo sapiens, UniProt Q969S8); assay: Inhibition of HDAC10 (unknown origin)
T3 sequence (Q969S8 whole entry): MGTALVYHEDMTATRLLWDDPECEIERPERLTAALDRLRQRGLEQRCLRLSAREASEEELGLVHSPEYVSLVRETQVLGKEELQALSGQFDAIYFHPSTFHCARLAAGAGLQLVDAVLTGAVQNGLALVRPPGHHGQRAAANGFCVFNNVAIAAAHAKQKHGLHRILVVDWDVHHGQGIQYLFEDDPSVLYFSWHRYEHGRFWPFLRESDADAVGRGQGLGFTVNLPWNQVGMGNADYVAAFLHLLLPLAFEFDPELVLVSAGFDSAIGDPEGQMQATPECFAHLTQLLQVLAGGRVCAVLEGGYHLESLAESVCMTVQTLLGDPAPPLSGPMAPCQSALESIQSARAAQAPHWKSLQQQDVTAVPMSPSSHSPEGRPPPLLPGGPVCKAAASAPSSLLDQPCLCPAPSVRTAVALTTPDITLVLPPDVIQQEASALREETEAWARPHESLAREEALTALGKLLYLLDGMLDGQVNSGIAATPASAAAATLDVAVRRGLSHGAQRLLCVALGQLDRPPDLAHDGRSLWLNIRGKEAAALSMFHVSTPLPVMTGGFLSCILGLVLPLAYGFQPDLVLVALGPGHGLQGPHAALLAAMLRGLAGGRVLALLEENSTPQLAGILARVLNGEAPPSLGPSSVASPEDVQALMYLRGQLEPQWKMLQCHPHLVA

[15] = Ratio of drug concentration in brain to plasma of C57BL/6 mouse plasma at 1 mg/kg, ip measured after 3 hrs by LC-MS/MS analysis; format: ADME, organism-based; conditions: read-out: BPR
[16] = Drug concentration in C57BL/6 mouse brain at 1 mg/kg, ip measured after 0.5 hrs by LC-MS/MS analysis; format: ADME, organism-based; conditions: read-out: Ct
[17] = Drug concentration in C57BL/6 mouse plasma at 1 mg/kg, ip measured after 3 hrs by LC-MS/MS analysis; format: ADME, organism-based
[18] = molecular target: Histone deacetylase 2 (Homo sapiens, UniProt Q92769); assay: Inhibition of HDAC2 (unknown origin)
Chain of Histone deacetylase 2 (Q92769 whole entry): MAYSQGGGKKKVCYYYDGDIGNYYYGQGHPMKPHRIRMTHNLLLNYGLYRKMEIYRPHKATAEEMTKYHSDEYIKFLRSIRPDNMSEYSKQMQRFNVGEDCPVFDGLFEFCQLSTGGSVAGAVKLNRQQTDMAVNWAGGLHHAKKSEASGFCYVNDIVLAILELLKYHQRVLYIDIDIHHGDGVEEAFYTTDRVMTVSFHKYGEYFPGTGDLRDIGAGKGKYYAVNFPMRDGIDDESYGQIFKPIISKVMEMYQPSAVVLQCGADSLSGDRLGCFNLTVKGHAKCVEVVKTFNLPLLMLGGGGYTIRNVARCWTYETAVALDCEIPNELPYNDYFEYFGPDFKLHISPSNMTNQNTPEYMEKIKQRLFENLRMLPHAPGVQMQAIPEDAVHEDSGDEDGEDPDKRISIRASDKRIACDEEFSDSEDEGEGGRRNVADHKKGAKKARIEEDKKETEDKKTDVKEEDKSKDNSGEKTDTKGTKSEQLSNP

[19] = molecular target: Histone deacetylase 1 (Homo sapiens, UniProt Q13547); assay: Inhibition of HDAC1 (unknown origin)
Chain of Histone deacetylase 1 (Q13547 whole entry): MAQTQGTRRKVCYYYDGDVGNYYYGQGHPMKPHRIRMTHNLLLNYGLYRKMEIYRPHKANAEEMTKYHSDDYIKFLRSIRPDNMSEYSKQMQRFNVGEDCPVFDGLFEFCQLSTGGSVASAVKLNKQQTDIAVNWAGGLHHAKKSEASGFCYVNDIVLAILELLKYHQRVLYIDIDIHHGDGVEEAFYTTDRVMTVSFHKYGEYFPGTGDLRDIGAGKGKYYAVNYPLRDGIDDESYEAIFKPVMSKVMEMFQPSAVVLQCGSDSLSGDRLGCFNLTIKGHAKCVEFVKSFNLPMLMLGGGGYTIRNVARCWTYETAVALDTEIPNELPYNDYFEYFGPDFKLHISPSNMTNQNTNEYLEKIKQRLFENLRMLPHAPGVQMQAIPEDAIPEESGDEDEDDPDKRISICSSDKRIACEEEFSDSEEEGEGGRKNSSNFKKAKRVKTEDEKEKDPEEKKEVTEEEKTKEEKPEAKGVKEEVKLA

[20] = molecular target: T4, Protein deacetylase HDAC6 (Homo sapiens, UniProt Q9UBN7); assay: Inhibition of HDAC6 (unknown origin)
T4 sequence (Q9UBN7 whole entry): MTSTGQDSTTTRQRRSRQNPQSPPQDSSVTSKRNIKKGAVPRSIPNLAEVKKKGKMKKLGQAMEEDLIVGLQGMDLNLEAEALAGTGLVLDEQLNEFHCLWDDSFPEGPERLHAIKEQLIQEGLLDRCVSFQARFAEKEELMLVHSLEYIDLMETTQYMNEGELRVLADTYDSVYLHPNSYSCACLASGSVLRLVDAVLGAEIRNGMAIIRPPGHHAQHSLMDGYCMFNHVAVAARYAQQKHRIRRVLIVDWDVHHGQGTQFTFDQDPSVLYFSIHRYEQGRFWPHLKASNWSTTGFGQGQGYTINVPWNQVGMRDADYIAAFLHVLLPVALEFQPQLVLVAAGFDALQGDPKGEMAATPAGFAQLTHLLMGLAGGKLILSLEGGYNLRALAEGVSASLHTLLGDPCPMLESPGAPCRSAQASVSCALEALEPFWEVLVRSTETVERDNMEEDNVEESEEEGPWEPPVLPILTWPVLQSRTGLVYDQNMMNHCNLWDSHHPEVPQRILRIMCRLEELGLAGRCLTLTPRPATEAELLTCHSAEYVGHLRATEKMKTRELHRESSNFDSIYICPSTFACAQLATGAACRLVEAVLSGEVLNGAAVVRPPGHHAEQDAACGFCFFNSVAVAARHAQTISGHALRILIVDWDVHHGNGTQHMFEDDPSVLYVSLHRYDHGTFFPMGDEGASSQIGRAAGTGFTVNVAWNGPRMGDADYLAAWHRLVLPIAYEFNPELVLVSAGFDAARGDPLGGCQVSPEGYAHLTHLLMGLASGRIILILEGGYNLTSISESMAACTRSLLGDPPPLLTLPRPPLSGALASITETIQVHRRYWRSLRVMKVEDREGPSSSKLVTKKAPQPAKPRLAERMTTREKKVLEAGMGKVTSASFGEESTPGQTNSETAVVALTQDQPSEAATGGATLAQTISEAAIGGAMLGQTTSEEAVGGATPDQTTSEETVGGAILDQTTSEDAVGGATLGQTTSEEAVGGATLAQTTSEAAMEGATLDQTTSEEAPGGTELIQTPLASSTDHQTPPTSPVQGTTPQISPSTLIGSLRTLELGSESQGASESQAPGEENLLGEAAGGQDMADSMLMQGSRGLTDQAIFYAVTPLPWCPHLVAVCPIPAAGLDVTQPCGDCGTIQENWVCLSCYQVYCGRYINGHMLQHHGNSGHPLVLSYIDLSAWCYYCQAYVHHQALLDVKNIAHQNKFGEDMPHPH

[21] = Drug accumulation in mouse heart measured after 5 mins post injection; format: ADME, tissue-based; conditions: in vivo
[22] = Drug accumulation in mouse spleen measured after 5 mins post injection; format: ADME, tissue-based; conditions: in vivo
[23] = Drug accumulation in mouse kidney measured after 5 mins post injection; format: ADME, tissue-based; conditions: in vivo
[24] = Drug accumulation in mouse liver measured after 5 mins post injection; format: ADME, tissue-based; conditions: in vivo
[25] = Drug accumulation in mouse liver measured after 60 mins post injection; format: ADME, tissue-based; conditions: in vivo, 1 h
[26] = Drug accumulation in mouse lung measured after 5 mins post injection; format: ADME, tissue-based; conditions: in vivo
[27] = Drug uptake in mouse brain at 3 mg/kg measured at upto 60 mins by PET imaging based analysis; format: ADME, organism-based; conditions: in vivo, 1 h
[28] = Drug accumulation in mouse kidney measured after 60 mins post injection; format: ADME, tissue-based; conditions: in vivo, 1 h

SMILES: O=C(NO)c1ccc(CNC2CCCc3cccnc32)c(F)c1 (stereo unspecified)
IC50 [19]: 5050 nM | IC50 [20]: 63 nM

SMILES: O=C(NO)c1ccc(CN2CCCc3cccnc32)c([18F])c1
Drug uptake [21]: > 10 %ID/cc | Drug uptake [22]: Active | Drug uptake [23]: > 10 %ID/cc | Drug uptake [24]: > 10 %ID/cc | Drug uptake [25]: Active | Drug uptake [26]: Active | SUV [27]: 0.6 | Drug uptake [28]: Active

SMILES: O=C(NO)c1ccc(CNc2cccc3ccc([18F])nc23)cc1
SUV [27]: 0.35

Second part, led by results:

Kp at 1 h [1]: 1.5 | IC50 [2]: 597 nM | IC50 [3]: 701 nM | concentration at 1 h [4]: 4.32 ng/mL | concentration at 0.5 h [6]: 6.21 ng/mL | IC50 [7]: 1850 nM | IC50 [8]: 8610 nM | concentration at 1 h [9]: 6.48 ng/mL | concentration at 3 h [10]: 1.07 ng/mL | IC50 [11]: 568 nM | Kp at 0.5 h [12]: 2.1 | IC50 [13]: 578 nM | IC50 [14]: 269 nM | Kp at 3 h [15]: 1.3 | concentration at 0.5 h [16]: 13.2 ng/mL | concentration at 3 h [17]: 0.82 ng/mL | IC50 [18]: > 10000 nM
SMILES: O=C(NO)c1ccc(CN2CCCc3cccnc32)c(F)c1
Activity [5]: Non-Toxic

IC50 [19]: 4710 nM | IC50 [20]: 86.1 nM
SMILES: O=C(NO)c1ccc(CNC2CCCc3cccnc32)cc1 (stereo unspecified)
